In patent US20030092739A1, “Heterocyclic compounds” (priority 2001, published 2003):
Read-outs that look alike come from different tables or passages of the source.

System: aphids
Test: Biological Test On Aphid (spray on cabbage leaf in Petri dish)
Assay type: in vivo
Settings: for Number of dead aphids 1st: 1st replicate; for Number of dead aphids 1st / Number of dead aphids 2nd / Number of dead aphids 3rd / Number of dead aphids 4th: 20 aphids on cabbage leaf, 9.6% w/w pesticide reagent diluted 1000 times with water, sprayed, examined 24 hours later; for Number of dead aphids 2nd: 2nd replicate; for Number of dead aphids 3rd: 3rd replicate; for Number of dead aphids 4th: 4th replicate; for Number of dead aphids Average: average of four replicates; for pest or weed control at 96 µg/mL: read-out: Kill ratio
Protocol: The compound obtained from Example 1 was mixed with a solvent to form a 9.6% w/w pesticide reagent. An 8 cm×8 cm piece of clean cabbage leaf was placed on a lump of wet cotton in a Petri dish, and then 20 aphids were put on the cabbage leaf in the Petri dish. The thus formed pesticide reagent was diluted 1000 times with water to form a dilution that was then sprayed onto the cabbage leaf in the Petri dish with a predetermined amount. The number of dead aphids was examined 24 hours later, and the kill ratio was calculated. The test was carried out through four replicates.
Example 9 was repeated, except that the compound employed in Example 9 was replaced by the compound obtained from a respective one of the Examples 2 to 8.
Example 9 was repeated, except that the compound employed in Example 9 was replaced by imidachloprid, a heterocyclic compound of the formula disclosed in U.S. Pat. No. 4,742,060 that can be useful as pesticides.

[1] = 20 aphids, 9.6% w/w reagent diluted 1000 times, 24 hours
[2] = calculated from number of dead aphids, 20 aphids, 9.6% w/w reagent diluted 1000 times, 24 hours, four replicates

SMILES: O=[N+]([O-])/N=C1\NCCN1Cc1ccc(Cl)nc1 [Comparative Example 1, imidachloprid, reference compound]
- Number of dead aphids 1st: 17
- Number of dead aphids 2nd: 17
- Number of dead aphids 3rd: 18
- Number of dead aphids 4th: 17
- Number of dead aphids Average [1]: 17.25
- Kill ratio [2]: 85.90

SMILES: N#CNCc1ccc(Cl)nc1 [Example 9, 6-chloro-pyridin-3-ylmethyl-cyanamide]
- Number of dead aphids 1st: 19
- Number of dead aphids 2nd: 19
- Number of dead aphids 3rd: 20
- Number of dead aphids 4th: 20
- pest or weed control at 96 µg/mL (24 h): 96.2%
- Number of dead aphids Average [1]: 19.25

SMILES: CS/C(C)=N/OCc1ccc(Cl)nc1 [Example 10, N-(6-chloro-pyridin-3-ylmethoxy)-thioacetimidic Acid Methyl Ester]
- Number of dead aphids 1st: 18
- Number of dead aphids 2nd: 17
- Number of dead aphids 3rd: 18
- Number of dead aphids 4th: 17
- Number of dead aphids Average [1]: 17.5
- pest or weed control at 96 µg/mL [2]: 87.2%

SMILES: CC(C)Oc1ccccc1OCc1ccc(Cl)nc1 [Example 11, 2-chloro-5-(2-isopropoxy-phenoxymethyl)-pyridine]
- Number of dead aphids 1st: 16
- Number of dead aphids 2nd: 19
- Number of dead aphids 3rd: 18
- Number of dead aphids 4th: 18
- Number of dead aphids Average [1]: 17.75
- pest or weed control at 96 µg/mL [2]: 88.5%

SMILES: CSc1c(C)cc(OCc2ccc(Cl)nc2)cc1C [Example 12, 2-chloro-5-(3,5-dimethyl-4-methylsulfanyl-phenoxymethyl)-pyridine]
- Number of dead aphids 1st: 20
- Number of dead aphids 2nd: 19
- Number of dead aphids 3rd: 19
- Number of dead aphids 4th: 19
- Number of dead aphids Average [1]: 19.25
- pest or weed control at 96 µg/mL [2]: 96.2%

SMILES: Clc1ccc(COc2cccc3ccccc23)cn1 [Example 13, 2-chloro-5-(naphthalen-1-yloxymethyl)-pyridine]
- Number of dead aphids 1st: 18
- Number of dead aphids 2nd: 17
- Number of dead aphids 3rd: 16
- Number of dead aphids 4th: 17
- Number of dead aphids Average [1]: 17
- pest or weed control at 96 µg/mL [2]: 84.6%

SMILES: CC1(C)Cc2cccc(OCc3ccc(Cl)nc3)c2O1 [Example 14, 2-chloro-5-(2,2-dimethyl-2,3-dihydro-benzofuran-7-yloxymethyl)-pyridine]
- Number of dead aphids 1st: 17
- Number of dead aphids 2nd: 16
- Number of dead aphids 3rd: 18
- Number of dead aphids 4th: 16
- Number of dead aphids Average [1]: 16.75
- pest or weed control at 96 µg/mL [2]: 83.3%

SMILES: CNC(=O)Nc1nc2ccccc2n1Cc1ccc(Cl)nc1 [Example 15, 1-[1-(6-chloro-pyridin-3-ylmethyl)-1H-benzoimidazol-2-yl]-3-mehtyl-urea]
- Number of dead aphids 1st: 17
- Number of dead aphids 2nd: 17
- Number of dead aphids 3rd: 16
- Number of dead aphids 4th: 16
- pest or weed control at 96 µg/mL (24 h): 82%
- Number of dead aphids Average [1]: 16.5

SMILES: CNC(=O)Nc1nc2ccccc2n1Cc1csc(Cl)n1 [Example 16, 1-[1-(2-chloro-thiazol-4-ylmethyl)-1H-benzoimidazol-2-yl]-3-methyl-urea]
- Number of dead aphids 1st: 19
- Number of dead aphids 2nd: 16
- Number of dead aphids 3rd: 16
- Number of dead aphids 4th: 16
- Number of dead aphids Average [1]: 16.75
- pest or weed control at 96 µg/mL [2]: 83.3%
